Data as given in US12285526B2, “Nanoparticle composition with reduced contaminant and production method thereof” (Shionogi & Co., Ltd., priority 2019, dated 2025).

Assay: Particle size of drug particles after bead mill grinding (Microtrac UPA 150 M)
Type: physicochemical
Conditions: slurry with PVP K-25 3 w/w % and sodium lauryl sulfate 0.25 w/w % in water, pH 6.07-10.37; zirconia beads 0.5 mm; ground 120 minutes
Protocol: Phenitoin (Shizuoka Caffein Co., Ltd.) (7.5 g, 5 w/w %) as a drug, polyvinylpyrrolidone (PVP K-25, BASF Japan Ltd.) (4.5 g, 3 w/w %) as a polymer compound, sodium lauryl sulfate (Cognis Japan Ltd.) (0.375 g, 0.25 w/w %) as a surfactant were dispersed in 137.6 g of purified water to prepare a slurry. The pH of the slurry was 3.88. The pH was adjusted by adding 1N aqueous sodium hydroxide solution to this slurry, and samples having various pH (pH 6.07, 6.68, 7.36, 8.14, 8.96, 10.37) were prepared.
Each sample (100 g) and beads (217.3 g, filling ratio 70%) were charged into Dyno-mill Research Lab (manufactured by WAB), and the grinding process by the bead mill was carried out for 120 minutes (disc peripheral speed: 4 m/s, temperature: 20° C., fluid speed: 45 g/min). The beads used for the grinding process were YTZ ball (zirconia beads manufactured by Nikkato Corporation, with diameter of 0.5 mm). As used herein, the term “filling ratio” refers to the ratio (in percentage) of the true volume to the bulk volume of the beads, and hereinafter the same is applied.
The particle size of the drug particles after the grinding process was nano-order of less than 1 μm (D50 value). The particle size was determined using Microtrac UPA 150 M (MicrotracBEL Corp.). […]

In the case of `O=C1NC(=O)C(c2ccccc2)(c2ccccc2)N1` [Phenitoin, Phenytoin], the “particle size of the drug particles after the grinding process (D50 value)” value is reported as “less than 1 μm”.
